The source of these data is article PMC12439480, “Dimeric CCK2R radiotheranostic tracers synergize with mTOR inhibition for enhanced tumor therapy” (Theranostics, 2025).

The test system of data set [1] is AR42J tumor-bearing mice. Description: in vivo. Set-up: species or system BALB/c nude mice. As to conditions: mouse, 1 h. The procedure, abridged: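 AR42J xenografts in female BALB/c nude mice received 3.7 MBq iv of [^68Ga]Ga-DOTA-CCK2R-dimer (≈120 pmol) or [^68Ga]Ga-DOTA-CCK-66 (≈210 pmol), n = 3/group. Tissues were γ-counted at 30, 60 and 120 min p.i. and expressed as %ID/g. Blocking used 400-fold excess of lead compound co-injected, read at 1 h.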

The nature of data set [2]: in vivo. Set-up: species or system BALB/c nude mice. The conditions noted are these: female, BALB/c nude, mouse, iv, total radioactivity. The protocol:
For the micro-positron emission tomography/computed tomography (microPET/CT) imaging study, BALB/c nude mice bearing AR42J tumors (detailed in Supplementary Methods Section S3: Mouse Models) were intravenously injected with 3.7 MBq of [^68Ga]Ga-DOTA-CCK2R-dimer (≈ 120 pmol) or [^68Ga]Ga-DOTA-CCK-66 (≈ 210 pmol) (dissolved in 200 μL of saline; n = 3/group), and microPET/CT imaging was performed at 30, 60, and 120 min post-injection. The mice were anesthetized via inhalation of an isoflurane mixture approximately 5 min before each PET/CT acquisition began. To confirm tumor-specific radiopharmaceutical uptake, blocking experiments were conducted at the 1-h time point of imaging by coinjecting the mice with the radiopharmaceutical and a 400-fold excess of the lead compound.
All animal studies were approved by the Ethics Committee of Fudan University
Shanghai Cancer Center (No. FUSCC-IACUC- S2023- 0003). Five-week-old female
BALB/c nude mice were purchased from Shanghai SLAC Laboratory Animal
Company. To establish cell-derived xenograft (CDX) models, 1 × 10⁶ AR42J cells
(100 μL) were subcutaneously inoculated into the right shoulder of each mouse. […]

Numbered stars: 1 amine (or outer) side, 2 acyl side, 3 side chain; on linkers, the order of the positions; unused ones are H or OH. Square brackets hold non-standard residues; d marks the D form. Side chains are listed from the residue outwards. Peptide text beside a SMILES is read from it. * marks the point of attachment. DOTA = O=C(O)CN1CCN(CC(=O)O)CCN(CC(=O)*)CCN(CC(=O)O)CC1; d(γGlu) = O=C(O)[C@@H](CCC(=O)[*:2])N[*:1]; 1Nal = N[C@@H](Cc1cccc2ccccc12)C(=O)O; NMeNle = CCCC[C@H](NC)C(=O)O; PEG4 = NCCOCCOCCOCCOCCC(=O)O

As for `CCCC[C@@H](C(=O)N[C@@H](CC(=O)O)C(=O)N[C@@H](Cc1cccc2ccccc12)C(N)=O)N(C)C(=O)[C@H](Cc1c[nH]c2ccccc12)NC(=O)CCOCCOCCOCCOCCNC(=O)CC[C@@H](NC(=O)CN1CCN(CC(=O)O)CCN(CC(=O)O)CCN(CC(=O)O)CC1)C(=O)O` [[68Ga]Ga-DOTA-CCK-66, metal not drawn, reference compound] ({DOTA-d(γGlu)-PEG4}-W[NMeNle]D[1Nal]-NH2), in data set [1], the Bladder uptake was determined as 1.15 ± 1.21 %ID/g, the Kidney uptake is listed as 12.68 ± 3.71 %ID/g, the Liver uptake was 0.96 ± 0.26 %ID/g and the Stomach uptake was 1.49 ± 0.64 %ID/g. In addition, in data set [2] (3.7 MBq), the tissue uptake (in general, the share of the injected amount in each gram of the tissue) at 0.5 h was 16 ± 2.18 %ID/g; the tissue uptake at 1 h was found to be 19.5 ± 2.95 %ID/g; the tissue uptake at 2 h worked out at 19.6 ± 3.35 %ID/g. Besides, the tissue uptake at 1 h in data set [2] was 7.9 ± 1.35 %ID/g.
As to `CCCC[C@@H](C(=O)N[C@@H](CC(=O)O)C(=O)N[C@@H](Cc1cccc2ccccc12)C(N)=O)N(C)C(=O)[C@H](Cc1c[nH]c2ccccc12)NC(=O)CCOCCOCCOCCOCCNC(=O)CC[C@@H](NC(=O)CC[C@H](NC(=O)CN1CCN(CC(=O)O)CCN(CC(=O)O)CCN(CC(=O)O)CC1)C(=O)N[C@H](CCC(=O)NCCOCCOCCOCCOCCC(=O)N[C@@H](Cc1c[nH]c2ccccc12)C(=O)N(C)[C@@H](CCCC)C(=O)N[C@@H](CC(=O)O)C(=O)N[C@@H](Cc1cccc2ccccc12)C(N)=O)C(=O)O)C(=O)O` [[68Ga]Ga-DOTA-CCK2R-dimer, metal not drawn] ({DOTA}-E([d(γGlu)-PEG4-Trp-NMeNle-Asp-1Nal-NH2])[d(γGlu)][PEG4]W[NMeNle]D[1Nal]-NH2), in data set [2] (3.7 MBq), the tissue uptake at 0.5 h turned out to be 22.6 ± 0.32 %ID/g, the tissue uptake at 1 h worked out at 23.9 ± 2.12 %ID/g and the tissue uptake at 2 h stood at 26.1 ± 6.21 %ID/g. For the same compound, in data set [2], the tissue uptake at 1 h was 10.9 ± 1.73 %ID/g.
